Key:
Type in all cases: in vivo
[1] = system: ducksalad (Heteranthera limosa); test: Test B flooded paddy test; details: for Plant response rating, Flood, Ducksalad: 250 g ai/ha, flooded paddy test, visual rating on 0 to 100 scale (0 no effect, 100 complete control) after 13 to 15 days; for Plant response rating, Ducksalad: Flood (flooded paddy test), 13 to 15 days
In short: (§1)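 Each compound is added to standing floodwater (3 cm above soil, maintained) in pots of 2-leaf-stage plants; greenhouse exposure lasts 13–15 d before visual comparison with controls on a 0–100 control scale.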

[2] = system: umbrella sedge (Cyperus difformis); test: Test B flooded paddy test; details: for Plant response rating, Flood, Sedge, Umbrella: 250 g ai/ha, flooded paddy test, visual rating on 0 to 100 scale (0 no effect, 100 complete control) after 13 to 15 days; for Plant response rating, Sedge, Umbrella: Flood (flooded paddy test), 13 to 15 days
In short: as §1

rice (Oryza sativa) = test: Test B flooded paddy test; details: for Plant response rating, Flood, Rice: 250 g ai/ha, flooded paddy test, visual rating on 0 to 100 scale (0 no effect, 100 complete control) after 13 to 15 days; for Plant response rating, Rice: Flood (flooded paddy test), 13 to 15 days
In short: as §1

[3] = system: barnyardgrass (Echinochloa crus-galli); test: Test B flooded paddy test; details: for Plant response rating, Flood, Barnyardgrass: 250 g ai/ha, flooded paddy test, visual rating on 0 to 100 scale (0 no effect, 100 complete control) after 13 to 15 days; for Plant response rating, Barnyardgrass: Flood (flooded paddy test), 13 to 15 days
In short: as §1

[4] = system: morningglory (Ipomoea spp.); test: Test A pre-/postemergence plant response; details: for Morningglory plant response rating: visual injury, 0 to 100 scale (0 no effect, 100 complete control), approx. ten days
In short: (§2)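 Pre: directed soil spray on seeded loam/sand blend. Post: same formulation (non-phytotoxic solvent + surfactant) on 2–10 cm plants, 1–2 leaf stage. Greenhouse ~10 d; visual injury score 0–100 vs untreated.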

[5] = system: giant foxtail (Setaria faberii); test: Test A pre-/postemergence plant response; details: for Foxtail, Giant plant response rating: visual injury, 0 to 100 scale (0 no effect, 100 complete control), approx. ten days
In short: as §2

[6] = system: pigweed (Amaranthus retroflexus); test: Test A pre-/postemergence plant response; details: for Pigweed plant response rating: visual injury, 0 to 100 scale (0 no effect, 100 complete control), approx. ten days
In short: as §2

[7] = system: large crabgrass (Digitaria sanguinalis); test: Test A pre-/postemergence plant response; details: for Crabgrass, Large plant response rating: visual injury, 0 to 100 scale (0 no effect, 100 complete control), approx. ten days
In short: as §2

corn (Zea mays) = test: Test A pre-/postemergence plant response; details: for Corn plant response rating: visual injury, 0 to 100 scale (0 no effect, 100 complete control), approx. ten days
In short: as §2

[8] = system: velvetleaf (Abutilon theophrasti); test: Test A pre-/postemergence plant response; details: for Velvetleaf plant response rating: visual injury, 0 to 100 scale (0 no effect, 100 complete control), approx. ten days
In short: as §2

[9] = system: wheat (Triticum aestivum); test: Test A pre-/postemergence plant response; details: for Wheat plant response rating: visual injury, 0 to 100 scale (0 no effect, 100 complete control), approx. ten days
In short: as §2

[10] = system: barnyardgrass (Echinochloa crus-galli); test: Test A pre-/postemergence plant response; details: for Barnyardgrass plant response rating: visual injury, 0 to 100 scale (0 no effect, 100 complete control), approx. ten days
In short: as §2

[11] = 62 g ai/ha, scale of 0 to 100 where 0 is no effect and 100 is complete control
[12] = Postemergence, 125 g ai/ha, 0 to 100 scale where 0 is no effect and 100 is complete control
[13] = Preemergence, 125 g ai/ha, 0 to 100 scale, 0 = no effect, 100 = complete control
[14] = Preemergence, 500 g ai/ha, 0 to 100 scale, 0 = no effect, 100 = complete control
[15] = 125 g ai/ha, scale 0 to 100, 0 is no effect, 100 is complete control
[16] = Flood, 31 g ai/ha, scale 0 to 100 (0 no effect, 100 complete control)

C=CCCn1c(-c2ccccc2)ncc(C(=O)C2=C(O)CCCC2=O)c1=O [Compound 214]
Plant response rating, Flood, Ducksalad [1]: 95
Plant response rating, Ducksalad [1, 11]: 0
Plant response rating, Flood, Sedge, Umbrella [2]: 85
Plant response rating, Sedge, Umbrella [2, 11]: 0
Plant response rating, Flood, Rice (rice (Oryza sativa)): 15
Plant response rating, Rice (rice (Oryza sativa); [11]): 0
Plant response rating, Flood, Barnyardgrass [3]: 20
Plant response rating, Barnyardgrass [3, 11]: 0
Plant response rating, Morningglory [4, 12]: 80
Morningglory plant response rating ([4]; Postemergence, 500 g ai/ha): 100
Plant response rating, Morningglory [4, 13]: 0
Plant response rating, Morningglory [4, 14]: 80
Plant response rating, Foxtail, Giant [5, 12]: 50
Foxtail, Giant plant response rating ([5]; Postemergence, 500 g ai/ha): 90
Plant response rating, Foxtail, Giant [5, 13]: 30
Plant response rating, Foxtail, Giant [5, 14]: 70
Plant response rating, Pigweed [6, 12]: 90
Pigweed plant response rating ([6]; Postemergence, 500 g ai/ha): 100
Plant response rating, Pigweed [6, 13]: 70
Plant response rating, Pigweed [6, 14]: 90
Plant response rating, Crabgrass, Large [7, 12]: 80
Crabgrass, Large plant response rating ([7]; Postemergence, 500 g ai/ha): 90
Plant response rating, Crabgrass, Large [7, 13]: 30
Plant response rating, Crabgrass, Large [7, 14]: 90
Plant response rating, Corn (corn (Zea mays); [12]): 0
Corn plant response rating (corn (Zea mays); Postemergence, 500 g ai/ha): 30
Plant response rating, Corn (corn (Zea mays); [13]): 0
Plant response rating, Corn (corn (Zea mays); [14]): 0
Plant response rating, Velvetleaf [8, 12]: 100
Velvetleaf plant response rating ([8]; Postemergence, 500 g ai/ha): 100
Plant response rating, Velvetleaf [8, 13]: 90
Plant response rating, Velvetleaf [8, 14]: 100
Plant response rating, Wheat [9, 12]: 0
Wheat plant response rating ([9]; Postemergence, 500 g ai/ha): 20
Plant response rating, Wheat [9, 13]: 0
Plant response rating, Wheat [9, 14]: 30
Plant response rating, Barnyardgrass [10, 12]: 80
Barnyardgrass plant response rating ([10]; Postemergence, 500 g ai/ha): 90
Plant response rating, Barnyardgrass [10, 13]: 10
Plant response rating, Barnyardgrass [10, 14]: 60

C#Cc1ccc(-c2ncc(C(=O)C3=C(O)CCCC3=O)c(=O)n2C2CCCCC2)cc1 [Compound 216]
Plant response rating, Flood, Ducksalad [1]: 95
Plant response rating, Ducksalad [1, 11]: 90
Plant response rating, Ducksalad [1, 15]: 90
Ducksalad plant response rating [1, 16]: 50
Plant response rating, Flood, Sedge, Umbrella [2]: 100
Plant response rating, Sedge, Umbrella [2, 11]: 65
Plant response rating, Sedge, Umbrella [2, 15]: 80
Sedge, Umbrella plant response rating [2, 16]: 0
Plant response rating, Flood, Rice (rice (Oryza sativa)): 0
Plant response rating, Rice (rice (Oryza sativa); [11]): 0
Plant response rating, Rice (rice (Oryza sativa); [15]): 0
Rice plant response rating (rice (Oryza sativa); [16]): 0
Plant response rating, Flood, Barnyardgrass [3]: 0
Plant response rating, Barnyardgrass [3, 11]: 0
Plant response rating, Barnyardgrass [3, 15]: 0
Barnyardgrass plant response rating [3, 16]: 0
Plant response rating, Morningglory [4, 12]: 70
Morningglory plant response rating ([4]; Postemergence, 500 g ai/ha): 90
Plant response rating, Morningglory [4, 13]: 0
Plant response rating, Morningglory [4, 14]: 30
Plant response rating, Foxtail, Giant [5, 12]: 30
Foxtail, Giant plant response rating ([5]; Postemergence, 500 g ai/ha): 70
Plant response rating, Foxtail, Giant [5, 13]: 0
Plant response rating, Foxtail, Giant [5, 14]: 60
Plant response rating, Pigweed [6, 12]: 90
Pigweed plant response rating ([6]; Postemergence, 500 g ai/ha): 90
Plant response rating, Pigweed [6, 13]: 0
Plant response rating, Pigweed [6, 14]: 50
Plant response rating, Crabgrass, Large [7, 12]: 40
Crabgrass, Large plant response rating ([7]; Postemergence, 500 g ai/ha): 80
Plant response rating, Crabgrass, Large [7, 13]: 0
Plant response rating, Crabgrass, Large [7, 14]: 80
Plant response rating, Corn (corn (Zea mays); [12]): 0
Corn plant response rating (corn (Zea mays); Postemergence, 500 g ai/ha): 0
Plant response rating, Corn (corn (Zea mays); [13]): 0
Plant response rating, Corn (corn (Zea mays); [14]): 20
Plant response rating, Velvetleaf [8, 12]: 90
Velvetleaf plant response rating ([8]; Postemergence, 500 g ai/ha): 100
Plant response rating, Velvetleaf [8, 13]: 0
Plant response rating, Velvetleaf [8, 14]: 30
Plant response rating, Wheat [9, 12]: 20
Wheat plant response rating ([9]; Postemergence, 500 g ai/ha): 30
Plant response rating, Wheat [9, 13]: 0
Plant response rating, Wheat [9, 14]: 0
Plant response rating, Barnyardgrass [10, 12]: 10
Barnyardgrass plant response rating ([10]; Postemergence, 500 g ai/ha): 90
Plant response rating, Barnyardgrass [10, 13]: 0
Plant response rating, Barnyardgrass [10, 14]: 20

— US8952024B2, “Herbicidal pyrimidone derivatives” (E I du Pont de Nemours and Company, priority 2009, dated 2015)
